Results on twelve compounds are retold here after PubChem BioAssay (NCI).

Test systems include SNB-78 CNS; DMS 273 small cell lung; HOP-18 NSCLC; LXFL 529 NSCLC; XF 498 CNS; P388 leukemia; DMS 114 small cell lung; P388/ADR leukemia; SN12K1 renal; RXF-631 renal; BT-549 breast; MDA-N.
Experiment in all cases: NCI tumour cell line growth inhibition, 48 h

Where “and” joins values, the source holds several entries; their conditions need not be identical. Equal entries are not always repeated.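 Each compound was tested at five concentrations against cells in 96-well plates for 48 hours. GI50: concentration for 50% inhibition of growth. TGI marks complete inhibition of growth.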

As for `COc1cc(C2c3cc4c(cc3[C@@H](NCCCN(C)C)[C@H]3COC(=O)C23)OCO4)cc(OC)c1O` (stereo partly drawn), the GI50 with SNB-78 CNS was 2.6 µM and 11.6 µM; in the assay with HOP-18 NSCLC, 3.78 µM and 1.18 µM. The TGI with SNB-78 CNS is > 37.5 µM; in the assay with DMS 273 small cell lung, 2.06 µM and 2.61 µM; with HOP-18 NSCLC, > 37.5 µM and 16.3 µM; with LXFL 529 NSCLC, 25.7 µM and > 20 µM.

On to `Nc1nc(Cl)cc(NCCCCCCCCCCCCNc2cc(Cl)nc(N)n2)n1`, for which the TGI in the assay with DMS 273 small cell lung was 58 µM; with XF 498 CNS it was 26.4 µM; in the assay with HOP-18 NSCLC, > 100 µM; in the assay on LXFL 529 NSCLC, 53 µM.

For the compound `ClCc1ccc2ccc3ccc(CCl)nc3c2n1`, the TGI in the assay on P388 leukemia was found to be 7.32 µM; in the assay on SNB-78 CNS, 10.3 µM; with DMS 114 small cell lung it was 4.26 µM; in the assay with P388/ADR leukemia, 5.07 µM; in the assay on XF 498 CNS, 4.45 µM; with HOP-18 NSCLC it was 8.77 µM. This compound showed a TGI in the assay with SN12K1 renal of 4.4 µM.

On to `CC[C@](C)(O)C(=O)O[C@H]1C(=O)O[C@@H]2C[C@H]3C(C)=C[C@H](O)[C@@H](O)[C@]3(C)[C@H]3[C@@]4(O)OC[C@]32[C@@H]1[C@@H](C)[C@H]4O`, for which the TGI was 128 µM in the assay with P388 leukemia; 138 µM with SNB-78 CNS; 17.6 µM in the assay with DMS 114 small cell lung; 325 µM in the assay on P388/ADR leukemia; 127 µM in the assay on DMS 273 small cell lung; 66.5 µM with XF 498 CNS. Also, the TGI in the assay on HOP-18 NSCLC worked out at 298 µM; with SN12K1 renal it was 32.1 µM.

On to `CCCCCCCSCC1C(=O)C23C(O)C1CCC2C12COC3(O)C(O)C1C(C)(C)CCC2O` (stereo not drawn), for which the TGI came out at 47.4 µM with SNB-78 CNS; 23.1 µM with DMS 114 small cell lung; 27.3 µM with DMS 273 small cell lung; 33.4 µM with XF 498 CNS; 25 µM with HOP-18 NSCLC; 22 µM in the assay with RXF-631 renal. Moreover, the TGI in the assay on LXFL 529 NSCLC came to 6.88 µM.

Take `CC(=O)c1cccc(NC(=O)C(=O)C(C(=O)c2ccccc2F)C2OC(=O)c3ccccc32)c1` (stereo not drawn): the TGI in the assay with SNB-78 CNS is > 100 µM; in the assay with DMS 114 small cell lung it was 90 µM; in the assay with DMS 273 small cell lung, > 100 µM; in the assay on XF 498 CNS, > 100 µM; in the assay on RXF-631 renal, > 100 µM; with LXFL 529 NSCLC it was > 100 µM.

Consider `COC(=O)C1(C)CCCC2(C)C3CCC4CC3(C=C4CO)CCC12` (stereo not drawn), for which the TGI in the assay with BT-549 breast and in the assay on MDA-N was > 100 µM each time.

In the case of `CC(C)CCCC(C)[C@H]1CC[C@H]2[C@@H]3CC[C@H]4C[C@@H](CCC=C(c5cc(Cl)c(O)c(C(=O)O)c5)c5cc(Cl)c(O)c(C(=O)O)c5)CC[C@]4(C)[C@H]3CC[C@]12C` (stereo partly drawn) (tested in a mixture with another compound), in the assay on BT-549 breast, the TGI is > 50 µM.

For the compound `COC(=O)CCC(C)C1CCC2C3CCC4CC5CCC4(C)C3(O5)C(Br)C(Br)C12C` (stereo not drawn), the TGI in the assay with BT-549 breast and in the assay on MDA-N was > 100 µM throughout.

In the assay on MDA-N, `CC1CC(C)(O)CC(C(O)CC2CC(=O)NC(=O)C2)C1=O` (stereo not drawn) registered a TGI of 1.16 µM.

As to `CCOC(=O)C1=NN(c2ccccc2)C2=CC(C)=NN(C)C(=S)N21`, the TGI with BT-549 breast and with MDA-N was > 100 µM throughout.

As for `CN(C)CCCNc1ccc2nnn3c4ccc(OC(=O)c5ccc([N+](=O)[O-])cc5)cc4c(=O)c1c23`, the TGI in the assay with BT-549 breast stood at 35.8 µM; with MDA-N, 26 µM.
